Data on 22 compounds can be found in patent publication US5519021A, “Benzoxazinones as inhibitors of HIV reverse transcriptase” (priority 1995, dated 1996).

The structures appear in SMILES notation. Like-named read-outs stand apart in the source and are kept apart here.

The target of data set [1] is T1, recombinant HIV reverse transcriptase (HIV RTR) (Human immunodeficiency virus type 1 group M subtype B, UniProt P04585).
T1 construct: recombinant HIV reverse transcriptase (HIV RTR); made in house; host or cells: E. coli
In words: Reverse transcriptase assay (wild type). In kind it is biochemical, HIV-1. The method, then:
(§1) The assay measures the incorporation of tritiated deoxyguanosine monophosphate by recombinant HIV reverse transcriptase (HIV RTR) (or other RT) into acid-precipitable cDNA at the Km values of dGTP and poly r(C).cndot.oligo d(G)12-18.
(§2) The assays were carried out in 55 mM Tris (pH 8.2)-30 mM KCl-30 mM MgCl2 -1 mM dithiothreitol-20 μg of rC:dG 12-18 (Pharmacia) per ml-8 mM [^3 H]dGTP (New England Nuclear)-0.01% Triton X-100-50 mM ethylene glycol-bis(β-amino-ethyl ether)-N,N,N',N'-tetraacetic acid (EGTA)-1 mg of bovine serum albumin per ml. After 60 min of incubation at 37° C., acid-precipitable material was collected onto glass fiber filters by using a semiautomatic cell harvester. Bacterial cell extracts containing RT were diluted to within the linear range of the assay, and activity was determined in the presence and absence of inhibitor. Purified HIV-1 RT heterodimer produced in E. coli also served as a control.

Another data set addresses T2, A17 RT (Human immunodeficiency virus type 1 group M subtype B, UniProt P04585, K690N/Y768C).
T2 construct: A17 RT was employed in the assay; made in house; host or cells: bacteria
Description: biochemical. The arrangement: species or system HIV-1. As for the experimental part: as §1, §2
For the double mutant assay (dm), A17 RT was employed in the assay. […] Results are measured as IC50 dm in nanomoles/liter.

Another data set has as its system HIV-1 (wild-type). In words: Cell spread assay (MT-4 T-lymphoid cells). Conditions: Human immunodeficiency virus 1, MT4, 72 h. In kind it is cell-based. As for the experimental part:
(§3) Inhibition of the spread of HIV in cell culture was measured according to Nunberg, J. H. et al., J. Virol. 65, 4887 (1991 ). In this assay, MT-4 T-lymphoid cells were infected with HIV-1 (wild-type, unless otherwise indicated) by using a predetermined inoculum, and cultures were incubated for 24 h. At this time, ≤1% of the cells were positive by indirect immunofluorescence. Cells were then extensively washed and distributed into 96-well culture dishes. Serial twofold dilutions of inhibitor were added to the wells, and cultures were continued for 3 additional days. At 4 days postinfection, 100% of the cells in control cultures were infected. HIV-1 p24 accumulation was directly correlated with virus spread. The cell culture inhibitory concentration was defined as the inhibitor concentration in nanomoles/liter which reduced the spread of infection by at least 95%, or CIC95.

The target in data set [2] is T3, reverse transcriptase of HIV2 (Human immunodeficiency virus type 2 subtype A, UniProt P04584).
T3 construct: is the reverse transcriptase of HIV2
T3 sequence (P04584 613-1171): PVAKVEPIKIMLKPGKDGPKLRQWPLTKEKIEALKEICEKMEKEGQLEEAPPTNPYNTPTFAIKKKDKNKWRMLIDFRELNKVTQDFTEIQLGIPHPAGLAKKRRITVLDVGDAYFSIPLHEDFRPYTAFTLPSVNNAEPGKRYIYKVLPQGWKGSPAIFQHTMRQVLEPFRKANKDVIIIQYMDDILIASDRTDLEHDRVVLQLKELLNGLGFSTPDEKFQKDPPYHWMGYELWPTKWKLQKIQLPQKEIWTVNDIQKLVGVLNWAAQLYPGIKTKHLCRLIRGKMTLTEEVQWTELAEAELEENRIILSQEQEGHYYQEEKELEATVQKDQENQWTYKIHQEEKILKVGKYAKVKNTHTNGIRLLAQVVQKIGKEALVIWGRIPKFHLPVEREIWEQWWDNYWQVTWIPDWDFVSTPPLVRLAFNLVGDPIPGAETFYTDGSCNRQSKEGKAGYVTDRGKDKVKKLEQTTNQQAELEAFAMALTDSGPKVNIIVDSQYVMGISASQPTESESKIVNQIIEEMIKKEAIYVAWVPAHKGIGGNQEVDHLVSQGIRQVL
T3 sequence (P04584 613-1051): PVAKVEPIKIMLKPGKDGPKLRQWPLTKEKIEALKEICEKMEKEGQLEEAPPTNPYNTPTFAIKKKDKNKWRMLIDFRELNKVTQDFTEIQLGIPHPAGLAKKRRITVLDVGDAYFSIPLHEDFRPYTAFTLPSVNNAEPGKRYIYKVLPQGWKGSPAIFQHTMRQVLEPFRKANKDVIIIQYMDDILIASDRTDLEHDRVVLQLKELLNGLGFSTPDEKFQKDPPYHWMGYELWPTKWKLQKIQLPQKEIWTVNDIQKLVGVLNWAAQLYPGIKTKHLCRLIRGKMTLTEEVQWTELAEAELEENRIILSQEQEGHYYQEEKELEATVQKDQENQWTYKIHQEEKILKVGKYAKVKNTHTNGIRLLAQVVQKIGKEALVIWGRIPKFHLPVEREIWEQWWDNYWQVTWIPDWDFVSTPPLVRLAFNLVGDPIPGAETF
Description: Reverse transcriptase assay, RT-2. The data set is classed as biochemical. As for the experimental part: as §1
as §2, with “control. Results are determined as inhibitor concentration to give 50% inhibition (IC50 wt), in nanomoles/liter.” for “control.”
is the reverse transcriptase of HIV2.

In another data set the test system is HIV-1 K103N. Description: Cell spread assay, K103N mutant. The data set is classed as cell-based. Conditions: MT-4 cells. The method, then: as §3
(§4) *Mutants K103N and Y181C are drugresistant HIV1 reverse transcriptases. D

The subject of a further data set is HIV-1 Y181C. In words: Cell spread assay, Y181C mutant. In kind it is cell-based. Conditions: MT-4 cells. As for the experimental part: as §3, §4
Another data set concerns HIV-1 DM (double mutant). Description: Cell spread assay, double mutant (DM). In kind it is cell-based. Conditions: MT-4 cells. As for the experimental part:
as §3, §4
is the double mutant, as discussed in the reverse transcriptase assay. RT

A short description of data set [3]: Protein binding (HPLC method). The data set is classed as in vitro ADME. Conditions: Normal Human Plasma (HPLC Method). An excerpt:
Protein Binding: 98.0% Normal Human Plasma (HPLC Method)

Setting [4] is: Table I, wild-type RT, read-out: IC*50 wt.
Where [5] appears, read: Table I, concentration reducing spread of infection by at least 95%, MT-4 cells, read-out: CIC*95.
The mark [6] stands for this setting: Table II, wild-type RT, read-out: IC*50 wt.

For `O=C1Nc2ccc(Cl)cc2C(C#Cc2ccccc2)(C(F)(F)F)O1` (racemic) [12(+/-), (±) 6-Chloro-4-phenylethynyl-4-trifluoromethyl-1,4-dihydro-2H-3,1-benzoxazin-2-one], the IC50 in data set [1] (setting [4]) turned out to be 12 nM; at A17 RT, 280 nM. In the data set with HIV-1 (wild-type) (setting [5]), the IC95 came to 0.025 µM.

Regarding `N#Cc1ccccc1C#CC1(C(F)(F)F)OC(=O)Nc2ccc(Cl)cc21` (racemic) [Compound 2, (+/-) 6-Chloro-4-(2-cyanophenyl)ethynyl-4-(1,1,1-trifluoromethyl)-1,4-dihydro-2H-3,1-benzoxazin-2-one], the IC50 was 25 nM in data set [1] (setting [4]) and 480 nM at A17 RT. The IC95 with HIV-1 (wild-type) (setting [5]) was determined as 0.006 µM.

With `O=C1Nc2ccc(Cl)cc2[C@](C#Cc2ccccc2)(C(F)(F)F)O1` [3(+), (+) 6-Chloro-4-phenylethynyl-4-trifluoromethyl 1,4-dihydro-2H-3,1-benzoxazin-2-one], the results for the IC50 (in data set [1]; against A17 RT) were 2900 nM and 37000 nM, respectively. For the same compound, the IC95 with HIV-1 (wild-type) (setting [5]) was over 0.2 µM.

As for `O=C1Nc2ccc(Cl)cc2[C@@](C#Cc2ccccc2)(C(F)(F)F)O1` [4(-), (-) 6-Chloro-4-phenylethynyl-4-trifluoromethyl-1,4-dihydro-2H-3,1-benzoxazin-2-one], the IC50 is 8.6 nM in data set [1] and 69 nM at A17 RT. Further, the IC95 in the data set with HIV-1 (wild-type) (read-out: CIC*95) is 0.012 µM.

What is called fraction unbound is the share of the substance not bound to proteins or other matrix. As for `O=C1Nc2ccc(Cl)cc2[C@@](C#CC2CC2)(C(F)(F)F)O1` [37.2(-), (-) 6-Chloro-4-cyclopropylethynyl-4-trifluoromethyl-1,4-dihydro-2H-3,1-benzoxazin-2-one], in the data set on HIV-1 (wild-type) (WT virus, MT-4 cells, N = 2, read-out: CIC95 (μM) WT), the IC95 was under 0.006 µM. In addition, the IC50 in data set [2] amounted to 80800 nM. Moreover, in the data set on HIV-1 K103N, the “CIC95 (μM) K103N” value came to 0.100 µM. For the same compound, the “CIC95 (μM) Y181C” value in the data set on HIV-1 Y181C is under 0.025 µM. The “CIC95 (μM) DM” value in the data set with HIV-1 DM (double mutant) is 0.400 µM. The compound further had an unbound share (fraction unbound) in data set [3] of 0.02.

`COc1ccccc1C#CC1(C(F)(F)F)OC(=O)Nc2ccc(Cl)cc21` (stereo not drawn) [Compound 11]: the IC50 in data set [1] (setting [4]) came to 16 nM; on A17 RT, 270 nM. Moreover, in the data set with HIV-1 (wild-type) (setting [5]), the IC95 came to 0.006 µM.

On to `COCC#CC1(C(F)(F)F)OC(=O)Nc2ccc(Cl)cc21` (stereo not drawn) [Compound 18], for which the IC50 in data set [1] (setting [4]) stood at 15 nM; against A17 RT, 2650 nM. Moreover, the IC95 in the data set on HIV-1 (wild-type) (setting [5]) turned out to be 0.05 µM.

`CN(C)CC#CC1(C(F)(F)F)OC(=O)Nc2ccc(Cl)cc21` (stereo not drawn) [Compound 24]: the IC50 in data set [1] (setting [4]) was 43 nM; on A17 RT it was 1950 nM. Also, the IC95 with HIV-1 (wild-type) (setting [5]) stood at 0.1 µM.

For the compound `CCCC1(C2CC2)OC(=O)Nc2ccc(Cl)cc21` (stereo not drawn) [Compound 28], the IC50 amounted to 307 nM in data set [1] (setting [4]) and 114000 nM against A17 RT. Besides, in the data set on HIV-1 (wild-type) (setting [5]), the IC95 amounted to 1.5 µM.

Take `COCC#CC1(C2CC2)OC(=O)Nc2ccc(Cl)cc21` (stereo not drawn) [Compound 30]: the IC50 was 410 nM in data set [1] (setting [4]) and 3000 nM against A17 RT.

On to `CN(C)CC#CC1(C2CC2)OC(=O)Nc2ccc(Cl)cc21` (stereo not drawn) [Compound 31], for which the IC50 was 410 nM in data set [1] (setting [4]) and 4250 nM at A17 RT.

For `CCC1(CC)OC(=O)Nc2ccc(Cl)cc21` [Compound 34], the IC50 in data set [1] (setting [4]) is 16500 nM; at A17 RT, over 300000 nM.

For the compound `C#CC1(c2ccccc2)OC(=O)Nc2ccc(Cl)cc21` (stereo not drawn) [Compound 35], the IC50 is 650 nM in data set [1] (setting [4]) and over 300000 nM against A17 RT.

For the compound `CCCC1(CC)OC(=O)Nc2ccc(Cl)cc21` (stereo not drawn) [Compound 36], the IC50 in data set [1] (setting [4]) was 52 nM; at A17 RT, over 300000 nM.

As for `CCCC1(C(C)(C)C)OC(=O)Nc2ccc(Cl)cc21` (stereo not drawn) [Compound 37], the IC50 is 5300 nM in data set [1] (setting [4]) and over 100000 nM against A17 RT.

Consider `S=C1Nc2ccc(Cl)cc2C(C2CC2)(C2CC2)O1` [Compound 38], for which the IC50 in data set [1] (setting [6]) was 136 nM; against A17 RT, over 300000 nM.

For the compound `CCC1(C2CC2)OC(=S)Nc2ccc(Cl)cc21` (stereo not drawn) [Compound 39], the IC50 in data set [1] (setting [6]) was 510 nM; at A17 RT, over 300000 nM.

As to `CCCC1(C2CC2)OC(=S)Nc2ccc(Cl)cc21` (stereo not drawn) [Compound 40], the values for the IC50 (in data set [1] (setting [6]); against A17 RT) were 48 nM and 29000 nM, respectively.

Take `CCCC1(C2CCCC2)OC(=S)Nc2ccc(Cl)cc21` (stereo not drawn) [Compound 41]: the IC50 in data set [1] (setting [6]) is 1400 nM; on A17 RT it was over 300000 nM.

On to `CCC1(c2ccccc2)OC(=S)Nc2ccc(Cl)cc21` (stereo not drawn) [Compound 44], for which the IC50 in data set [1] (setting [6]) was 15 nM; against A17 RT, over 300000 nM. The IC95 in the data set on HIV-1 (wild-type) (Table II, concentration reducing spread of infection by at least 95%, MT-4 cells, read-out: CIC*95) is 0.1 µM.

On to `CCC1(CC)OC(=S)Nc2ccc(Cl)cc21` [Compound 45], for which the IC50 in data set [1] (setting [6]) was 560 nM; on A17 RT, over 300000 nM.

`S=C1Nc2ccc(Cl)cc2C(c2ccccc2)(C2CC2)O1` (stereo not drawn) [Compound 46]: the IC50 in data set [1] (setting [6]) is 41 nM; on A17 RT, over 300000 nM.
